According to patent publication EP0430983B1, “USE OF CASTANOSPERMINE AS AN ANTI-INFLAMMATORY AND IMMUNOSUPPRESSANT AGENT” (THE AUSTRALIAN NATIONAL UNIVERSITY, priority 1988, dated 1990):
Several values for one entry are separate records, joined by “and”; a condition that tells them apart may be missing. Identical values can stand only once.

Legend:
[1] = test system: passively induced adjuvant arthritis; test: Passively induced adjuvant arthritis, change in foot volume; format: in vivo, (DAxLewis)F₁ rats; details: for % Δ in foot volume: 350 mg/kg/day s.c. osmotic pump from cell transfer, individual rats, 350 mg/kg/day
Description: (DAxLewis)F₁ rats were immunized with 3mg M.butyricum in light mineral oil injected intradermally in both hind feet. Ten days later spleens were removed and made into a single cell suspension in RPMI containing 5% fetal calf serum, 200mM L Glutamine, 5 x 10⁻ ⁵M 2-ME, penicillin and streptomycin. Cells were adjusted to 2 x 10⁶ cells/ml, and cultured in 50ml media in 75mm culture flasks. ConA was added at 2µg/ml and cultures incubated for 72hrs at 37°C in an atmosphere of 10% CO₂, 7% O₂ and the balance N₂. Cells were then washed and transferred at 50 x 10⁶ or 60 x 10⁶ cells/rat i.v. into 10 weeks old male (DAxLewis)F₁.
Castanospermine was put in osmotic pumps (Alza Corp.) which delivered 5µl/hr for 14 days. Pumps were implanted subcutaneously at the time of cell transfer. Rats received 350mg/kg/day of castanospermine.
Hind feet of rats were measured in 4 diameters beginning the day of cell transfer. The measurements are averaged and expressed as % change in volume of feet.
Two experiments have been performed both treating rats with 350mg/kg/day castanospermine beginning the day of cell transfer.

pancreatic islets = test: Transplantation of allogeneic pancreatic islets, graft rejection by blood glucose; format: in vivo, CBA mice
Description: Donor mice were Balb/c (H2^d) and recipients were CBA (H2^k). Donor pancreatic islets were prepared using standard techniques. Approximately 400 islets were isolated from 10 donor mice. These freshly isolated islets, in groups of 50, were placed into CBA blood clots and these were placed under the kidney capsule of CBA mice which were diabetic (blood glucose 20mM/litre).
Two recipients were implanted (subcutaneously) with miniosmotic pumps containing CS at the time of islet transplantation. These pumps delivered CS at a dose of 300 mg/kg/mouse/day for a period of 14 days. Two control mice were sham operated.
Blood samples (10µl) were taken daily and assayed for blood glucose using an automatic analyser (Beckman Glucose Analyzer 2).
All transplant recipients became normoglycaemic within 24 hours indicating successful transplantation of all of the grafts. Rejection of grafts was assumed to occur when animals became hyperglycaemic. Control animals rejected on days 9 and 12.

passive EAE = test: Passively induced experimental allergic encephalomyelitis (passive EAE), clinical grading and CNS histology; format: in vivo, Lewis (RT-1') rats; details: for protection against clinical EAE: osmotic pump implanted at time of cell transfer; for mean clinical score: score out of possible 5 ± standard errors
[2] = test system: Delayed hypersensitivity (DTH); test: Delayed hypersensitivity (DTH) to sheep red blood cells, foot swelling; format: in vivo, C57BL mice; details: CS ip every 4 hours from footpad testing, total 300 mg/kg/mouse over 24 hrs; 5 mice/group; control group 33%
Description: C57BL mice were given 10⁸ sheep red blood cells (SRBC) intravenously. Five days later 10⁵ SRBC in a volume of […] was injected into the left hind footpad and […] saline into the right. Castanospermine was given every 4 hours ip beginning at the time of footpad testing. Total dose of CS over 24 hrs was 300 mg/kg/mouse. Control mice were given saline every 4 hours, and 5 mice/group were used in both test and control groups.

[3] = Preliminary toxicity studies; format: in vivo; details: 500 mg/kg/day for 7 days; animals observed for a 6 week period after treatment; data not shown
renal allografts = test: Renal allograft survival; format: in vivo, DA rats; details: pump; for No. of rats surviving more than 14 days: DA rats with (DA/LEW) renal allografts; for No. of days of Survival: the rat surviving more than 14 days
Source text: One kidney from each rat was replaced with a donor kidney, after which the remaining original rat kidney was removed. The results are set out in Table 5 below: Table 5

[4] = Table 1, CS 100 mg/kg/day, s.c. miniosmotic pump at time of cell transfer
[5] = Table 1, CS 200 mg/kg/day, s.c. miniosmotic pump at time of cell transfer

Compound: O[C@H]1[C@H](O)[C@@H](O)CN2CC[C@H](O)[C@H]12 [CS, Castanospermine]
- % Δ in foot volume ([1]; Exp 1, 50 x 10^6 cells, Day 7): -5% and 5% and 0% and +12%
- % Δ in foot volume ([1]; Exp 1, 50 x 10^6 cells, Day 14): -1% and 0% and +9% and +4%
- inflammation of feet ([1]; Exp 1 and Exp 2, 350 mg/kg/day from cell transfer): In no case did any of the CS treated rats show inflammation
- % Δ in foot volume ([1]; Exp 2, 60 x 10^6 cells, Day 7): -5% and -7% and -3% and +3%
- % Δ in foot volume ([1]; Exp 2, 60 x 10^6 cells, Day 14): -8% and -18% and -14% and -1%
- swelling and inflammation after end of treatment ([1]; Exp 2, pumps removed on day 15, animals followed out to day 28+): remained normal
- day of graft rejection (hyperglycaemia) (pancreatic islets; Balb/c islets in diabetic CBA mice, 300 mg/kg/mouse/day s.c. miniosmotic pump for 14 days, one mouse, controls rejected on days 9 and 12): 19 days
- day of graft rejection (hyperglycaemia) (pancreatic islets; other CS treated mouse, whose miniosmotic pump was found not to have delivered its CS payload): 12 days
- protection against clinical EAE (passive EAE; 100 mg/kg/day): no protective effect
- protection against clinical EAE (passive EAE; 200 mg/kg/day): only partial protection
- number of inflammatory lesions in CNS tissues (histology) (passive EAE; 300 mg/kg/day from cell transfer, rats killed at day 8, compared with untreated rats): approximately the same number of inflammatory lesions as untreated rats
- protection against clinical EAE (passive EAE; 300 mg/kg/day): complete protection
- mean day of onset (passive EAE; [4]): 4±0
- mean clinical score (passive EAE; [4]): 4.0±0
- animals with EAE (passive EAE; Table 1, CS 100 mg/kg/day, s.c. miniosmotic pump placed at time of cell transfer): 4/4
- mean day of onset (passive EAE; [5]): 5±0
- mean clinical score (passive EAE; [5]): 2.0±0
- animals with EAE (passive EAE; Table 1, CS 200 mg/kg/day, s.c. miniosmotic pump placed at time of cell transfer): 4/4
- animals with EAE (passive EAE; Table 1, CS 300 mg/kg/day, s.c. miniosmotic pump placed at time of cell transfer): 0/4
- animals with EAE (passive EAE; Table 2, convalescent rats (compromised blood-brain barrier), CS 300 mg/kg/day, s.c. miniosmotic pump at time of secondary cell transfer): 0/4
- animals with EAE (passive EAE; Table 2, naive rats, CS 300 mg/kg/day, s.c. miniosmotic pump at time of cell transfer): 0/4
- animals with EAE (passive EAE; Table 3, experiment 1, CS 150 mg/kg i.p., 12 hourly, initiated on day 4 (before clinical signs), for 3 days): 0/3
- animals with EAE (passive EAE; Table 3, experiment 2, CS 150 mg/kg i.p., 12 hourly, initiated on day 4 (after onset of signs)): 3/3
- mean clinical score (passive EAE; Table 3, experiment 2, CS 150 mg/kg i.p., 12 hourly, initiated on day 4): 4±0
- animals with EAE (passive EAE; Table 3, experiment 3, CS 300 mg/kg osmotic pump, initiated on day 4 (after onset of signs)): 5/5
- mean clinical score (passive EAE; Table 3, experiment 3, CS 300 mg/kg osmotic pump, initiated on day 4): 4±0
- clinical signs of EAE with delayed treatment (passive EAE; exp.1, two 150 mg/kg i.p. injections daily from 4 days after cell transfer for 3 days, signs in untreated animals not apparent until day 6): did not develop clinical signs of EAE
- clinical signs of EAE with delayed treatment (passive EAE; exp.3, osmotic pumps implanted on day 4 after cell transfer, all animals showed mild clinical signs on day 4): failed to modify subsequent disease expression
- second episode of passively induced EAE (passive EAE; rats recovered from one episode, pump delivering 300 mg/kg/day on the day of secondary transfer): did not develop a second episode of the disease
- increase in foot swelling [2]: 11%
- toxic effect [3]: no apparent toxic effect
- No. of rats surviving more than 14 days (renal allografts; 100mg/kg, 9 rats): 1
- No. of days of Survival (renal allografts; 100mg/kg): 100 days
- No. of rats surviving more than 14 days (renal allografts; 250mg/kg, 7 rats): 1
- No. of days of Survival (renal allografts; 250mg/kg): 33 days
